What all share (format): cell-based, human
In assay [1] the test system is GOTO and SJ-N-CG cells. Briefly: WST cell viability assay in neuroblastoma cell lines. The note with it: PTGER2 gene-nonexpressing cell lines (GOTO, SJ-N-CG); 0.01 mM, 0.1 mM, 1 mM for 72 hours. As for the experimental part: Since the PTGER2 protein and G protein are coupled to be associated with increased intracellular cAMP concentration (Narumiya, et al., Physiol Rev, 79, 1193-1226, 1999), the association between intracellular cAMP concentration and proliferation of neuroblastoma was investigated. First, neuroblastoma cell lines lacking expression of the PTGER2 gene (GOTO and SJ-N-CG) and neuroblastoma cell lines expressing the PTGER2 gene (SJ-N-KP and KP-N-SIFA) were cultured in a growth medium with 0 mM, 0.01 mM, 0.1 mM, and 1 mM of 8-Br-cAMP for 72 hours. Then, the viability of these cells was detected by WST assay (FIG. 5).

Assay [2] relates to PTGER2 gene. Put plainly: RT-PCR of PTGER2 gene expression in treated neuroblastoma cell lines lacking PTGER2 expression. As for the experimental part:
Moreover, in order to investigate whether or not the lowered expression of the PTGER2 gene was due to DNA methylation, neuroblastoma cell lines lacking expression of the PTGER2 gene were used and treated with 1 μM or 5 μM of 5-aza-dCyd, a demethylating reagent, for 5 days and/or 100 ng/ml of TSA, a deacetylation inhibitor, for 12 hours. RNA was extracted from each cell line and the PTGER2 gene expression thereof was examined by RT-PCR (FIG. 1C).

The subject of assay [3] is PTGDR gene. Briefly: RT-PCR of PTGDR gene expression in treated neuroblastoma cell lines. The note with it: three types of neuroblastoma cell lines, treatment with 5-aza-dCyd.
Assay [4] relates to CpG island of the PTGER2 gene. Put plainly: Methylation status of the PTGER2 CpG island in neuroblastoma cells cultured with a demethylating agent. The following applies: neuroblastoma cells cultured in the presence of 5-aza-dC.

SMILES strings stand for the structures. “Also recorded” adds a separate entry of the source.

For `Nc1ncnc2c1nc(Br)n2[C@@H]1O[C@@H]2COP(=O)(O)O[C@H]2[C@H]1O` [8-Br-cAMP], in assay [1], the “proliferation (cell viability by WST assay)” value is “suppressed”.
On to `CC(/C=C/C(=O)NO)=C\[C@@H](C)C(=O)c1ccc(N(C)C)cc1` [TSA, Trichostatin A], for which the PTGER2 gene expression result in assay [2] (100 ng/ml TSA alone for 12 hours) is listed as “restored; also recorded: increased level”.
`Nc1ncn([C@H]2C[C@H](O)[C@@H](CO)O2)c(=O)n1` [5-aza-dCyd, 5-azadeoxycytidine]: the PTGDR gene expression entry in assay [3] is “restored”. Further, the “demethylation of the CpG island of the PTGER2 gene” value in assay [4] is “successfully demethylated”. Further, the PTGER2 gene expression result in assay [2] (1 μM or 5 μM 5-aza-dCyd alone for 5 days) is “restored”; in assay [2] (1 μM or 5 μM 5-aza-dCyd alone for 5 days, listed as 5-aza-dC), “successfully restored”.

The values above are taken from patent publication US20090004660A1, “METHOD FOR DETECTING NEUROBLASTOMA AND ITS MALIGNANCY AND METHOD FOR SUPPRESSING THE SAME” (priority 2007, published 2009).
